EC50 data for 34 molecules are collected here from patent US20240083903A1, “ARYL ETHER COMPOUNDS AS TEAD MODULATORS” (Merck Sharp& Dohme LLC, priority 2021, published 2024).

The subject of the test is TEAD Reporter-MCF7 cell line. As to the kind of experiment: YAP/TEAD cellular activity assay: inhibition of TEAD-Luc activity in TEAD Reporter-MCF7 cell line. Format: cell-based, human. The following applies: TEAD Reporter-MCF7 cells, 24 hours incubation with compound, luciferase readout. In outline:
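MCF7 cells stably carrying a TEAD-responsive firefly luciferase reporter were seeded at 10,000 cells/well, grown 20-24 h, then exposed to compounds for 24 h at 37° C. Luciferase read by ONE-Glo EX luminescence; percent inhibition and EC50 derived.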

For orientation: EC50 means the concentration needed to bring the measured effect to its halfway point. Turning to `CNS(=O)(=O)c1ccc(Oc2cc(F)cc(C(F)(F)F)c2)c(-c2cnn3c2CCC3)c1` [3-3, 3-(5,6-dihydro-4H-pyrrolo[1,2-b]pyrazol-3-yl)-4-[3-fluoro-5-(trifluoromethyl)phenoxy]-N-methylbenzene-1-sulfonamide], the EC50 (Homo sapiens, MCF7, 24 h) was found to be 2080 nM.
As to `CNS(=O)(=O)c1ccc(Oc2ccc(OC(F)(F)F)cc2)c(-c2cnn3c2CCC3)c1` [3-4, 3-(5,6-dihydro-4H-pyrrolo[1,2-b]pyrazol-3-yl)-N-methyl-4-[4-(trifluoromethoxy)phenoxy]benzene-1-sulfonamide], the EC50 (Homo sapiens, MCF7, 24 h) was 618 nM.
Take `CNS(=O)(=O)c1ccc(Oc2cccc(OC(F)(F)F)c2)c(-c2cnn3c2CCC3)c1` [3-5, 3-(5,6-dihydro-4H-pyrrolo[1,2-b]pyrazol-3-yl)-N-methyl-4-[3-(trifluoromethoxy)phenoxy]benzene-1-sulfonamide]: the EC50 (Homo sapiens, MCF7, 24 h) was found to be 3090 nM.
Turning to `CNS(=O)(=O)c1ccc(Oc2ccc(CC(F)(F)F)cc2)c(-c2cnn3c2CCC3)c1` [3-6, 3-(5,6-dihydro-4H-pyrrolo[1,2-b]pyrazol-3-yl)-N-methyl-4-[4-(2,2,2-trifluoroethyl)phenoxy]benzene-1-sulfonamide], the EC50 (Homo sapiens, MCF7, 24 h) is 508 nM.
As to `CNS(=O)(=O)c1ccc(O[C@H]2CC[C@H](C(F)(F)F)CC2)c(-c2cn3c(n2)CCC3)c1` [4-1, 3-(6,7-Dihydro-5H-pyrrolo[1,2-a]imidazol-2-yl)-N-methyl-4-(((1r,4r)-4-(trifluoromethyl)cyclohexyl)oxy)benzenesulfonamide], where the note is “Homo sapiens, MCF7, 24 h”, the EC50 came out at 52.6 nM.
With `CNS(=O)(=O)c1ccc(Oc2ccc(C(F)(F)F)nc2)c(-c2cn3c(n2)CCC3)c1` [4-2, 3-(6,7-dihydro-5H-pyrrolo[1,2-a]imidazol-2-yl)-N-methyl-4-((6-(trifluoromethyl)pyridin-3-yl)oxy)benzenesulfonamide], the EC50 (Homo sapiens, MCF7, 24 h) is 261 nM.
As to `CNS(=O)(=O)c1ccc(Oc2ccc(C(C)(C)C)cc2)c(-c2cn3c(n2)CCC3)c1` [4-3, 4-(4-tert-butylphenoxy)-3-(6,7-dihydro-5H-pyrrolo[1,2-a]imidazol-2-yl)-N-methylbenzene-1-sulfonamide], where the note is “Homo sapiens, MCF7, 24 h”, the EC50 was 5.7 nM.
As to `CNS(=O)(=O)c1ccc(Oc2ccc3c(c2)CCC3)c(-c2cn3c(n2)CCC3)c1` [4-4, 4-[(2,3-dihydro-1H-inden-5-yl)oxy]-3-(6,7-dihydro-5H-pyrrolo[1,2-a]imidazol-2-yl)-N-methylbenzene-1-sulfonamide], the EC50 (Homo sapiens, MCF7, 24 h) amounted to 32.3 nM.
On to `CNS(=O)(=O)c1ccc(Oc2cccc(Cl)c2)c(-c2cn3c(n2)CCC3)c1` [4-5, 4-(3-chlorophenoxy)-3-(6,7-dihydro-5H-pyrrolo[1,2-a]imidazol-2-yl)-N-methylbenzene-1-sulfonamide], for which the EC50 (Homo sapiens, MCF7, 24 h) was 103 nM.
`CNS(=O)(=O)c1ccc(Oc2cccc(F)c2)c(-c2cn3c(n2)CCC3)c1` [4-6, 3-(6,7-dihydro-5H-pyrrolo [1,2-a]imidazol-2-yl)-4-(3-fluorophenoxy)-N-methylbenzene-1-sulfonamide]: the EC50 (Homo sapiens, MCF7, 24 h) is 146 nM.
Regarding `CNS(=O)(=O)c1ccc(Oc2ccc(C)cc2)c(-c2cn3c(n2)CCC3)c1` [4-7, 3-(6,7-dihydro-5H-pyrrolo [1,2-a]imidazol-2-yl)-N-methyl-4-(4-methylphenoxy)benzene-1-sulfonamide], the EC50 (Homo sapiens, MCF7, 24 h) came to 23.8 nM.
With `CNS(=O)(=O)c1ccc(Oc2ccc(C(C)C)cc2)c(-c2cn3c(n2)CCC3)c1` [4-8, 3-(6,7-dihydro-5H-pyrrolo [1,2-a]imidazol-2-yl)-N-methyl-4-[4-(propan-2-yl)phenoxy]benzene-1-sulfonamide], the EC50 (Homo sapiens, MCF7, 24 h) stood at 5.5 nM.
Consider `CCc1ccc(Oc2ccc(S(=O)(=O)NC)cc2-c2cn3c(n2)CCC3)cc1` [4-9, 3-(6,7-dihydro-5H-pyrrolo [1,2-a]imidazol-2-yl)-4-(4-ethylphenoxy)-N-methylbenzene-1-sulfonamide], for which the EC50 (Homo sapiens, MCF7, 24 h) came out at 15.1 nM.
Still for that read-out and setting: the value for `CCc1cccc(Oc2ccc(S(=O)(=O)NC)cc2-c2cn3c(n2)CCC3)c1` [4-10, 3-(6,7-dihydro-5H-pyrrolo [1,2-a]imidazol-2-yl)-4-(3-ethylphenoxy)-N-methylbenzene-1-sulfonamide] was 21.6 nM; that for `CNS(=O)(=O)c1ccc(Oc2ccc(F)c(F)c2)c(-c2cn3c(n2)CCC3)c1` [4-11, 4-(3,4-difluorophenoxy)-3-(6,7-dihydro-5H-pyrrolo[1,2-a]imidazol-2-yl)-N-methylbenzene-1-sulfonamide] was 206 nM.
Still for that read-out and setting: the value for `CNS(=O)(=O)c1ccc(Oc2ccc(Cl)cc2)c(-c2cn3c(n2)CCC3)c1` [4-12, 4-(4-chlorophenoxy)-3-(6,7-dihydro-5H-pyrrolo[1,2-a]imidazol-2-yl)-N-methylbenzene-1-sulfonamide] was 14.1 nM; that for `CNS(=O)(=O)c1ccc(Oc2ccc(F)cc2)c(-c2cn3c(n2)CCC3)c1` [4-13, 3-(6,7-dihydro-5H-pyrrolo [1,2-a]imidazol-2-yl)-4-(4-fluorophenoxy)-N-methylbenzene-1-sulfonamide] was 207 nM; that for `CNS(=O)(=O)c1ccc(Oc2ccc(OC)cc2)c(-c2cn3c(n2)CCC3)c1` [4-14, 3-(6,7-dihydro-5H-pyrrolo[1,2-a]imidazol-2-yl)-4-(4-methoxyphenoxy)-N-methylbenzene-1-sulfonamide] was 45.7 nM.
Turning to `CNS(=O)(=O)c1ccc(Oc2cccc(C(F)(F)F)c2)c(-c2cn3c(n2)CCC3)c1` [4-15, 3-(6,7-dihydro-5H-pyrrolo[1,2-a]imidazol-2-yl)-N-methyl-4-[3-(trifluoromethyl)phenoxy]benzene-1-sulfonamide], the EC50 (Homo sapiens, MCF7, 24 h) is 22.3 nM.
With `CNS(=O)(=O)c1ccc(Oc2ccc(Cl)c(C(F)(F)F)c2)c(-c2cn3c(n2)CCC3)c1` [4-16, 4-[4-chloro-3-(trifluoromethyl)phenoxy]-3-(6,7-dihydro-5H-pyrrolo[1,2-a]imidazol-2-yl)-N-methylbenzene-1-sulfonamide], the EC50 (Homo sapiens, MCF7, 24 h) came to 5.2 nM.
The same measure, in the same setting: the value for `CNS(=O)(=O)c1ccc(Oc2ccc(SC(F)(F)F)cc2)c(-c2cn3c(n2)CCC3)c1` [4-17, 3-(6,7-dihydro-5H-pyrrolo[1,2-a]imidazol-2-yl)-N-methyl-4-{4-[(trifluoromethyl)sulfanyl]phenoxy}benzene-1-sulfonamide] was 14 nM.
As for `CNS(=O)(=O)c1ccc(Oc2ccc(S(F)(F)(F)(F)F)cc2)c(-c2cn3c(n2)CCC3)c1` [4-18, 3-(6,7-dihydro-5H-pyrrolo[1,2-a]imidazol-2-yl)-N-methyl-4-[4-(pentafluoro-lambda~6~-sulfanyl)phenoxy]benzene-1-sulfonamide], the EC50 (Homo sapiens, MCF7, 24 h) stood at 15.2 nM.
Consider `CNS(=O)(=O)c1ccc(Oc2ccc(C)cc2F)c(-c2cn3c(n2)CCC3)c1` [4-19, 3-(6,7-dihydro-5H-pyrrolo[1,2-a]imidazol-2-yl)-4-(2-fluoro-4-methylphenoxy)-N-methylbenzene-1-sulfonamide], for which the EC50 (Homo sapiens, MCF7, 24 h) amounted to 15.3 nM.
Turning to `CNS(=O)(=O)c1ccc(Oc2ccc(Cl)cc2F)c(-c2cn3c(n2)CCC3)c1` [4-20, 4-(4-chloro-2-fluorophenoxy)-3-(6,7-dihydro-5H-pyrrolo[1,2-a]imidazol-2-yl)-N-methylbenzene-1-sulfonamide], the EC50 (Homo sapiens, MCF7, 24 h) was 15 nM.
As to `CNS(=O)(=O)c1ccc(Oc2ccc(F)cc2F)c(-c2cn3c(n2)CCC3)c1` [4-21, 4-(2,4-difluorophenoxy)-3-(6,7-dihydro-5H-pyrrolo[1,2-a]imidazol-2-yl)-N-methylbenzene-1-sulfonamide], the EC50 was 55.9 nM.
For the molecule `CNS(=O)(=O)c1ccc(Oc2ccc(F)cc2F)c(-c2cn3c(n2)CCC3)c1` [4-22, 4-(2,4-difluorophenoxy)-3-(6,7-dihydro-5H-pyrrolo[1,2-a]imidazol-2-yl)-N-methylbenzene-1-sulfonamide], the EC50 worked out at 25.3 nM.
Consider `O=S(=O)(NCC1CC1)c1ccc(Oc2ccc(C(F)(F)F)cc2)c(-c2cnn3c2CCC3)c1` [5-1, N-(Cyclopropylmethyl)-3-(5,6-dihydro-4H-pyrrolo[1,2-b]pyrazol-3-yl)-4-(4-(trifluoromethyl)phenoxy)benzenesulfonamide], for which the EC50 (Homo sapiens, MCF7, 24 h) is 4410 nM.
For the molecule `CNS(=O)(=O)c1ccc(Oc2ccc(C(F)(F)F)cc2)c(-n2cc3c(n2)CN(C)C3)c1` [6-1, N-Methyl-3-(5-methyl-5,6-dihydropyrrolo [3,4-c]pyrazol-2(4H)-yl)-4-(4-(trifluoromethyl)phenoxy)benzenesulfonamide], the EC50 (Homo sapiens, MCF7, 24 h) is 6690 nM.
The same measure, in the same setting: the value for `CNS(=O)(=O)c1ccc(Oc2ccc(C(F)(F)F)cc2)c(-n2cc3c(n2)CCC3)c1` [6-2, 3-(5,6-dihydrocyclopenta[c]pyrazol-2(4H)-yl)-N-methyl-4-[4-(trifluoromethyl)phenoxy]benzene-1-sulfonamide] was 68.5 nM.
As for `CC(C)NS(=O)(=O)c1ccc(Oc2ccc(C(F)(F)F)cc2)c(-c2cn3c(n2)CCC3)c1` [7-1, 3-(6,7-dihydro-5H-pyrrolo[1,2-a]imidazol-2-yl)-N-(propan-2-yl)-4-[4-(trifluoromethyl)phenoxy]benzene-1-sulfonamide], the EC50 (Homo sapiens) is 138 nM.
For `CCNS(=O)(=O)c1ccc(Oc2ccc(C(F)(F)F)cc2)c(-c2cn3c(n2)CCC3)c1` [7-2, 3-(6,7-dihydro-5H-pyrrolo[1,2-a]imidazol-2-yl)-N-ethyl-4-[4-(trifluoromethyl)phenoxy]benzene-1-sulfonamide], under “Homo sapiens, MCF7, 24 h”, the EC50 was determined as 35.2 nM.
Still for that read-out and setting: the value for `O=S(=O)(NC1CC1)c1ccc(Oc2ccc(C(F)(F)F)cc2)c(-c2cn3c(n2)CCC3)c1` [7-3, N-cyclopropyl-3-(6,7-dihydro-5H-pyrrolo[1,2-a]imidazol-2-yl)-4-(4-(trifluoromethyl)phenoxy)benzenesulfonamide] was 17.8 nM.
As to `CNS(=O)(=O)c1ccc(Oc2ccc(Cl)cc2)c(-c2cc3n(n2)CCC3)c1` [8-1, 4-(4-Chlorophenoxy)-3-(5,6-dihydro-4H-pyrrolo[1,2-b]pyrazol-2-yl)-N-methylbenzene-1-sulfonamide], the EC50 (Homo sapiens) worked out at 10.4 nM.
As to `CNS(=O)(=O)c1ccc(Oc2ccc(F)cc2)c(-c2cc3n(n2)CCC3)c1` [8-2, 3-(5,6-dihydro-4H-pyrrolo[1,2-b]pyrazol-2-yl)-4-(4-fluorophenoxy)-N-methylbenzene-1-sulfonamide], the EC50 (Homo sapiens, MCF7, 24 h) stood at 21.5 nM.
